From paper PMC7570844, “Skin Damages—Structure Activity Relationship of Benzimidazole Derivatives Bearing a 5-Membered Ring System” (Molecules, 2020)
In brackets after ≈: the same amount, converted by molar mass. Several values for one entry are separate records, joined by “and”; a condition that tells them apart may be missing. Equal entries are not always repeated. Where two headings read alike, the source gives them in different places.

Columns and labels:
[1] = tested on: human T-lymphocyte cells (CEM); assay: Cell proliferation inhibition
Coxsackie virus B4 = assay: Antiviral activity in HeLa cell cultures (CPE, MTS); assay type: cell-based; conditions: Enterovirus B; Coxsackie virus B4, HeLa cells
vaccinia virus = assay: microbe, parasite or virus in culture; assay type: cell-based; conditions: Orthopoxvirus vaccinia, HEL, read-out: Antiviral EC50
[2] = Photostability of formulations, solar simulator; conditions: formulation on PMMA plates
[3] = tested on: vesicular stomatitis virus; assay: microbe, parasite or virus in culture; assay type: cell-based; conditions: HeLa, read-out: Antiviral EC50
Microsporum canis = assay: Antidermatophyte plaque growth inhibition; assay type: cell-based; conditions: for inhibition at 100 µg/mL: read-out: Percent growth inhibition
[4] = UV filtering parameters of cosmetic formulation on PMMA plates (modified Diffey-Robson); assay type: physicochemical
[5] = tested on: Respiratory syncytial virus; assay: microbe, parasite or virus in culture; assay type: cell-based; conditions: human respiratory syncytial virus, HeLa cells, read-out: Antiviral EC50
[6] = tested on: M. gypseum, M. canis, T. mentagrophytes, T. tonsurans and E. floccosum; assay: Antidermatophyte activity, all five dermatophytes taken together; assay type: cell-based; conditions: for inhibition at 100 µg/mL: read-out: Percentage of growth inhibition over the five dermatophytes
[7] = UV filtering parameters of compounds in solution (MeOH, 290-400 nm)
[8] = tested on: herpes simplex virus-1 TK-KOS ACVr; assay: microbe, parasite or virus in culture; assay type: cell-based; conditions: Human alphaherpesvirus 1, HEL, read-out: Antiviral EC50
[9] = tested on: Trichophyton mentagrophytes; assay: Antidermatophyte plaque growth inhibition; assay type: cell-based; conditions: for inhibition at 100 µg/mL: read-out: Percent growth inhibition
[10] = tested on: human cervical carcinoma cells (HeLa); assay: Cell proliferation inhibition
Human Coronavirus (229E) = assay: microbe, parasite or virus in culture; assay type: cell-based; conditions: HEL, read-out: Antiviral EC50
[11] = tested on: human pancreatic carcinoma cells (Mia Paca-2); assay: Cell proliferation inhibition
[12] = Ferric reducing antioxidant power (FRAP) test; conditions: mean ± SEM
Adeno virus-2 = assay: Antiviral activity in HEL cell cultures (CPE, MTS); assay type: cell-based; conditions: Adeno virus-2, HEL cells
HeLa cell cultures = conditions: human
[13] = DPPH radical scavenging test; conditions: mean ± SEM; for DPPH (% Inhibition): tested at 1 mg/mL
[14] = tested on: herpes simplex virus-2 (G); assay: Antiviral activity in HEL cell cultures (CPE, MTS); assay type: cell-based; conditions: Human alphaherpesvirus 2; Herpes simplex virus-2, HEL cells
[15] = tested on: herpes simplex virus-1 (KOS); assay: Antiviral activity in HEL cell cultures (CPE, MTS); assay type: cell-based; conditions: Human alphaherpesvirus 1, HEL cells
[16] = tested on: HEK293T (Normal Kidney Epithelial Cells); assay: Cell proliferation inhibition, non-cancer control cells; conditions: Homo sapiens, HEK-293T
[17] = tested on: human melanoma cells (SK-Mel 5); assay: Cell proliferation inhibition
Epidermophyton floccosum = assay: Antidermatophyte plaque growth inhibition; assay type: cell-based; conditions: for inhibition at 100 µg/mL: read-out: Percent growth inhibition
[18] = tested on: human embryonic lung (HEL) cell cultures
Microsporum gypseum = assay: Antidermatophyte plaque growth inhibition; assay type: cell-based; conditions: Nannizzia gypsea; for inhibition at 100 µg/mL: read-out: Percent growth inhibition
Trichophyton tonsurans = assay: Antidermatophyte plaque growth inhibition; assay type: cell-based; conditions: for inhibition at 100 µg/mL: read-out: Percent growth inhibition
[19] = tested on: Candida albicans (ATCC 10231); assay: Anti-Candida albicans broth microdilution MIC; conditions: Candida albicans, ATCC10231, 24 h
[20] = after solar simulator irradiation
[21] = M. canis, 100 µg/mL, '+' has no key
[22] = 100 µg/mL, all five dermatophytes
[23] = T. mentagrophytes, 100 µg/mL, '+' has no key
[24] = E. floccosum, 100 µg/mL, '+' has no key
[25] = M. gypseum, 100 µg/mL, '+' has no key
[26] = T. tonsurans, 100 µg/mL, '+' has no key

SMILES: c1coc(-c2nc3ccccc3[nH]2)c1 [Compound 11, 2-(furan-2-yl)-1H-benzimidazole]
- IC50 [1]: > 100 µM
- EC50 (Coxsackie virus B4): > 100 µM
- EC50 (vaccinia virus): > 100 µM
- % SPFeff (residual in vitro SPF after irradiation) [2, 20]: less than 80%
- % UVA-PFeff (residual UVA-PF after irradiation) [2, 20]: less than 80%
- Photostability (in words) ([2]; irradiated with solar simulator, photostable if % SPF and % PF-UVA at least 80%): photoinstable
- EC50 [3]: > 100 µM
- IC50 (Microsporum canis): 1.58 ± 0.06 µg/mL (≈ 8.58 µM)
- inhibition at 100 µg/mL (Microsporum canis): 98.3 ± 2.03%
- SPF ([4]; 1% in formulation): 6.84
- UVA/UVB ([4]; 1% in formulation): 0.69
- UVAPF ([4]; 1% in formulation): 1.94
- λc ([4]; 1% in formulation): 368 nm
- SPF ([4]; 2% in formulation): 10.39
- UVA/UVB ([4]; 2% in formulation): 0.13
- UVAPF ([4]; 2% in formulation): 1.53
- λc ([4]; 2% in formulation): 366 nm
- SPF ([4]; 3% in formulation): 11.15
- UVA/UVB ([4]; 3% in formulation): 0.18
- UVAPF ([4]; 3% in formulation): 1.82
- λc ([4]; 3% in formulation): 371 nm
- EC50 [5]: > 100 µM
- Activity on dermatophytes (in words) ([6]; 100 µg/mL): fungicide activity
- IC50 ([6]; read-out: IC50 range over the five dermatophytes): 0.97 to 3.8 µg/mL (≈ 5.27 to 20.6 µM)
- inhibition at 100 µg/mL [6]: ~100%
- SPF [7]: 20.06±3.04
- UVA/UVB [7]: 0.3
- UVAPF [7]: 1.05±0.06
- λc (critical wavelength) [7]: 333 nm
- EC50 [8]: > 100 µM
- IC50 [9]: 1.61 ± 0.1 µg/mL (≈ 8.74 µM)
- inhibition at 100 µg/mL [9]: 97.2 ± 4.53%
- IC50 [10]: > 100 µM
- EC50 (Human Coronavirus (229E)): > 100 µM
- IC50 [11]: > 100 µM
- FRAP [12]: 4462.64 µmolTE/g and 4462.64 ± 18.29 µmolTE/g
- EC50 (Adeno virus-2): > 100 µM
- Cytotoxic concentration (HeLa cell cultures): > 100 µM
- DPPH (% Inhibition) [13]: 15.46 ± 0.98%
- EC50 [14]: > 100 µM
- EC50 [15]: > 100 µM
- IC50 [16]: > 100 µM
- IC50 [17]: > 100 µM
- IC50 (Epidermophyton floccosum): 2.44 ± 0.05 µg/mL (≈ 13.2 µM)
- inhibition at 100 µg/mL (Epidermophyton floccosum): 97.9 ± 4.23%
- Cytotoxic concentration [18]: > 100 µM
- IC50 (Microsporum gypseum): 1.54 ± 0.02 µg/mL (≈ 8.36 µM)
- inhibition at 100 µg/mL (Microsporum gypseum): 99 ± 0.28%
- IC50 (Trichophyton tonsurans): 1.89 ± 0.22 µg/mL (≈ 10.3 µM)
- inhibition at 100 µg/mL (Trichophyton tonsurans): 94.7 ± 5.63%

SMILES: O=S(=O)(O)c1ccc2[nH]c(-c3cccs3)nc2c1 [Compound 9, 2-(thiophen-2-yl)-1H-benzimidazole-5-sulfonic Acid]
- IC50 [1]: 34 ± 2 µM
- EC50 (Coxsackie virus B4): > 100 µM
- EC50 (vaccinia virus): > 100 µM
- EC50 [3]: > 100 µM
- inhibition at 100 µg/mL (Microsporum canis; [21]): 65.9 ± 3.21%
- EC50 [5]: > 100 µM
- inhibition at 100 µg/mL [6, 22]: 50 to 79%
- SPF [7]: 4.72±0.17
- UVA/UVB [7]: 0.48
- UVAPF [7]: 1.43±0.09
- λc (critical wavelength) [7]: 339 nm
- EC50 [8]: > 100 µM
- inhibition at 100 µg/mL [9, 23]: 57.3 ± 1.09%
- IC50 [10]: > 100 µM
- melting point: > 250 °C
- EC50 (Human Coronavirus (229E)): > 100 µM
- IC50 [11]: 43 ± 14 µM
- FRAP [12]: 82.16 ± 0.22 µmolTE/g
- EC50 (Adeno virus-2): > 100 µM
- Cytotoxic concentration (HeLa cell cultures): > 100 µM
- DPPH (% Inhibition) [13]: 12.52 ± 0.88%
- EC50 [14]: > 100 µM
- EC50 [15]: > 100 µM
- IC50 [16]: > 100 µM
- IC50 [17]: > 100 µM
- inhibition at 100 µg/mL (Epidermophyton floccosum; [24]): 50 ± 3.26%
- Cytotoxic concentration [18]: > 100 µM
- MIC [19]: 64 µg/mL (≈ 228 µM)
- inhibition at 100 µg/mL (Microsporum gypseum; [25]): 59.8 ± 6.12%
- inhibition at 100 µg/mL (Trichophyton tonsurans; [26]): 50.8 ± 2.11%

SMILES: O=S(=O)(O)c1ccc2[nH]c(-c3ccc[nH]3)nc2c1 [Compound 7, 2-(1H-pyrrol-2-yl)-1H-benzimidazole-5-sulfonic Acid]
- IC50 [1]: 31 ± 21 µM
- EC50 (Coxsackie virus B4): > 100 µM
- EC50 (vaccinia virus): > 100 µM
- EC50 [3]: > 100 µM
- inhibition at 100 µg/mL (Microsporum canis; [21]): 72.1 ± 7.51%
- EC50 [5]: > 100 µM
- inhibition at 100 µg/mL [6, 22]: 50 to 79%
- SPF [7]: 5.43±0.39
- UVA/UVB [7]: 0.2
- UVAPF [7]: 1.22±0.03
- λc (critical wavelength) [7]: 345 nm
- EC50 [8]: > 100 µM
- inhibition at 100 µg/mL [9, 23]: 69 ± 1.84%
- IC50 [10]: > 100 µM
- melting point: > 250 °C
- EC50 (Human Coronavirus (229E)): > 100 µM
- IC50 [11]: 28 ± 10 µM
- FRAP [12]: 239.91 ± 1.79 µmolTE/g
- EC50 (Adeno virus-2): > 100 µM
- Cytotoxic concentration (HeLa cell cultures): > 100 µM
- DPPH IC50 [13]: 1093.09 ± 8.65 µg/mL
- EC50 [14]: > 100 µM
- EC50 [15]: > 100 µM
- IC50 [16]: 67 ± 47 µM
- IC50 [17]: > 100 µM
- inhibition at 100 µg/mL (Epidermophyton floccosum; [24]): 52.5 ± 6.58%
- Cytotoxic concentration [18]: > 100 µM
- MIC [19]: 64 µg/mL (≈ 243 µM)
- inhibition at 100 µg/mL (Microsporum gypseum; [25]): 73 ± 3.67%
- inhibition at 100 µg/mL (Trichophyton tonsurans; [26]): 56.6 ± 4.04%
